{"source": "patent US20230141887A1", "about": "“CRYSTAL FORM OF DIAZASPIROPYRAN COMPOUND” (MEDSHINE DISCOVERY INC., priority 2020, published 2023)", "key": {"FLT3(K663Q)": {"target": "T1, FLT3(K663Q) (Homo sapiens, UniProt P36888, K663Q)", "T1 sequence (P36888 27-993 K663Q)": "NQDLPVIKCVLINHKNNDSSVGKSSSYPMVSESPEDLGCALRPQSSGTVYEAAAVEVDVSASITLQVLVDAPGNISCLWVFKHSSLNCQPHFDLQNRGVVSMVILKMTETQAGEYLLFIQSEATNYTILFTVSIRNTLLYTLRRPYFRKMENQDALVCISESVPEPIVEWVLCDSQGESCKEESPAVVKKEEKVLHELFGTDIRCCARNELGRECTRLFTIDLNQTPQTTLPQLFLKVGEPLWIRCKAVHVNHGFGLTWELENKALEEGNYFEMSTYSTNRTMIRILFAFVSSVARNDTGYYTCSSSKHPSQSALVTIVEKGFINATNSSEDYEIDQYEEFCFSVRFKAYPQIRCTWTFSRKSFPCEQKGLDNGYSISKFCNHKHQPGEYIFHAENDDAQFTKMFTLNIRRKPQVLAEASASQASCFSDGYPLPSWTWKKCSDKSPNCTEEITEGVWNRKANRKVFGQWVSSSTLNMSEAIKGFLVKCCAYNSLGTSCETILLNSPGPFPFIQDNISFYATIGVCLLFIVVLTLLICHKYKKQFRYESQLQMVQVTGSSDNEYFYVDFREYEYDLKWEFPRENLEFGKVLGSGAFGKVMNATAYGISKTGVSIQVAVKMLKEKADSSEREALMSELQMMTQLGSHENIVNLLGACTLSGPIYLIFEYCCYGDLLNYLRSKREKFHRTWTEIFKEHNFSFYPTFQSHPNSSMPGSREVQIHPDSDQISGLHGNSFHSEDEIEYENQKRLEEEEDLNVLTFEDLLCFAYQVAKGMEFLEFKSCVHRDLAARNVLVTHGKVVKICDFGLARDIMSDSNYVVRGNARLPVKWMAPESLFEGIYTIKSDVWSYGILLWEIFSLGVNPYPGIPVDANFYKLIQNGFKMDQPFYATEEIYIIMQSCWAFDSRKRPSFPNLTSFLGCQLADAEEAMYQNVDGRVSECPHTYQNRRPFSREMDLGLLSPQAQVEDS", "format": "binding"}, "FLT3(R834Q)": {"target": "T2, FLT3(R834Q) (Homo sapiens, UniProt P36888, R834Q)", "T2 sequence (P36888 27-993 R834Q)": "T1 sequence (P36888 27-993 K663Q) with Q637K, R808Q", "format": "binding"}, "[1]": {"test": "In vivo pharmacokinetic assay in rats", "set-up": "species or system SD male rats", "description": "SD male rats aged 7 to 10 weeks were selected. The rats were fasted for at least 12 hours before the administration, and resumed feeding 4 hours after the administration. The rats had free access to water throughout the assay period.\nOn the day of the assay, the animals in the intravenous group were administrated the corresponding compound through a single injection in the tail vein at an administration volume of 5 mL/kg; the oral group were administrated the corresponding compound through a single intragastric gavage at an administration volume of 10 mL/kg. The animals were weighed before administration, and the administration volume was calculated based on the body weight. The time for collecting samples was: 0.083 (the injection group), 0.25, 0.5, 1, 2, 4, 6, 8, 24 h. About 200 μL of whole blood was collected from the jugular vein at each time point to prepare plasma for concentration determination by high-performance liquid chromatography-tandem mass spectrometry (LC-MS/MS). All animals were euthanized by CO2 anesthesia after collecting the PK samples at the last time point. The plasma concentrations were processed by non-compartmental model of WinNonlin™ Version 6.3 (Pharsight, Mountain View, Calif.) pharmacokinetic software, and the pharmacokinetic parameters were calculated by the linear logarithm trapezoidal method."}}, "note": "Numbering of substitutions follows the chain as printed.", "data": [{"smiles": "CCc1nc(C(N)=O)c(Nc2ccc(N3CCC4(CCN(C)CC4)CC3)c(C)c2)nc1NC1CCOCC1.O=C(O)C(F)(F)F", "values": [{"measurement": "Kd", "setting": "FLT3(K663Q); FLT3(K663Q)", "value": 10, "unit": "nM"}, {"measurement": "activity higher than that of the known compound B", "setting": "FLT3(K663Q); FLT3 (K663Q), ratio of Kd versus compound B", "value": 5.9, "unit": "times"}, {"measurement": "Kd", "setting": "FLT3(R834Q)", "value": 31, "unit": "nM"}, {"measurement": "AUC0-last", "setting": "[1]; Injection, 1 mg/kg", "value": 457, "unit": "nm·h"}, {"measurement": "Cl", "setting": "[1]; Injection, 1 mg/kg", "value": 61.2, "unit": "mL/min/kg"}, {"measurement": "T1/2", "setting": "[1]; Injection, 1 mg/kg", "value": 2.99, "unit": "h"}, {"measurement": "Vdss", "setting": "[1]; Injection, 1 mg/kg", "value": 13.3, "unit": "L/kg"}, {"measurement": "Cmax", "setting": "[1]; Oral, 2.5 mg/kg", "value": 40.6, "unit": "nM"}, {"measurement": "F%", "setting": "[1]; Oral, 2.5 mg/kg", "value": 44.7, "unit": "%"}, {"measurement": "Tmax", "setting": "[1]; Oral, 2.5 mg/kg", "value": 8.00, "unit": "h"}]}]}
